This test relates to L1210 leukemia ip in BDF1 mice, survival T/C. Description: NCI In Vivo Anticancer Drug Screen. Data for tumor model L1210 Leukemia (intraperitoneal) in B6D2F1 (BDF1) mice. The settings on record: endpoint: mean survival time, higher = longer survival. The procedure, abridged:
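Ratio derived from survival: compound-dosed mice over vehicle-dosed mice, all bearing a transplantable tumor.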

The mark [1] stands for this setting: dose: 12.5 mg/kg/injection, schedule: Q01DX009 (ip), vehicle: Klucel (hydroxypropylcellulose) (HPC).
Where [2] appears, read: dose: 12.5 mg/kg/injection, schedule: Q04DX002 (ip), vehicle: Klucel (hydroxypropylcellulose) (HPC).
The mark [3] stands for this setting: dose: 25.0 mg/kg/injection, schedule: Q04DX002 (ip), vehicle: Klucel (hydroxypropylcellulose) (HPC).
Setting [4] is: dose: 100.0 mg/kg/injection, schedule: Q04DX003 (ip), vehicle: Klucel (hydroxypropylcellulose) (HPC).
Where [5] appears, read: dose: 200.0 mg/kg/injection, schedule: Q04DX003 (ip), vehicle: Klucel (hydroxypropylcellulose) (HPC).
[6] abbreviates: dose: 400.0 mg/kg/injection, schedule: Q04DX003 (ip), vehicle: Klucel (hydroxypropylcellulose) (HPC).
Setting [7] is: dose: 75.0 mg/kg/injection, schedule: Q01DX001 (ip), vehicle: saline.
Where [8] appears, read: dose: 150.0 mg/kg/injection, schedule: Q01DX001 (ip), vehicle: saline.

This passage reports T/C results from PubChem BioAssay AID248 (DTP/NCI, 2004).

Values joined by “and” are separate entries in the source; they are usually repeats but may differ in a detail not shown here. Identical values can stand only once. Toxic doses and inconclusive results are not listed.

Take `C=[CH][Sn]([CH]=C)([CH]=C)[O]C(C)=O`: the T/C (dose: 1.56 mg/kg/injection, schedule: Q01DX009 (ip), vehicle: Klucel (hydroxypropylcellulose) (HPC)) is 103 % of control; the T/C (dose: 3.12 mg/kg/injection, schedule: Q01DX009 (ip), vehicle: Klucel (hydroxypropylcellulose) (HPC)) was 94 % of control; the T/C (dose: 6.25 mg/kg/injection, schedule: Q01DX009 (ip), vehicle: Klucel (hydroxypropylcellulose) (HPC)) is 98 % of control; the T/C under setting [1] is 103 % of control; the T/C under setting [2] is 102 % of control; the T/C under setting [3] is 105 % of control.
Consider `O=C(C(=O)c1cc(Br)ccc1O)c1cc(Br)ccc1O`, for which the T/C (dose: 100.0 mg/kg/injection, schedule: Q01DX009 (ip), vehicle: Klucel (hydroxypropylcellulose) (HPC)) is 96 % of control; the T/C under setting [4] was 93 % of control; the T/C (dose: 200.0 mg/kg/injection, schedule: Q01DX009 (ip), vehicle: Klucel (hydroxypropylcellulose) (HPC)) was 100 % of control; the T/C under setting [5] is 97 % of control; the T/C (dose: 400.0 mg/kg/injection, schedule: Q01DX009 (ip), vehicle: Klucel (hydroxypropylcellulose) (HPC)) is 94 % of control; the T/C under setting [6] is 95 % of control.
Take `Cc1c(NC(=O)Nc2ccc(C3=NCCCN3)cc2)cccc1NC(=O)Nc1ccc(C2=NCCCN2)cc1`: the T/C is 96 % of control (dose: 4.0 mg/kg/injection, schedule: Q01DX Z (ip), vehicle: water); 121 % of control (dose: 6.0 mg/kg/injection, schedule: Q01DX Z (ip), vehicle: water); 109 % of control (dose: 8.0 mg/kg/injection, schedule: Q01DX Z (ip), vehicle: water); 215 % of control (dose: 25.0 mg/kg/injection, schedule: Q01DX Z (ip), vehicle: water); 113 % of control (dose: 31.0 mg/kg/injection, schedule: Q01DX Z (oral), vehicle: water); 162 % of control (dose: 50.0 mg/kg/injection, schedule: Q01DX Z (ip), vehicle: water). The T/C runs as follows: (dose: 100.0 mg/kg/injection, schedule: Q01DX Z (ip), vehicle: water) 191 % of control; (dose: 125.0 mg/kg/injection, schedule: Q01DX Z (oral), vehicle: water) 108 % of control.
As for `CC(=O)OC1=C(Cl)C(=O)C(OC(C)=O)=C(Cl)C1=O`, the T/C reads like this: (dose: 50.0 mg/kg/injection, schedule: Q04DX003 (ip), vehicle: Klucel (hydroxypropylcellulose) (HPC)) 106 % of control; under setting [4], 100 % of control; under setting [5], 100 % of control; under setting [6], 92 % of control.
As to `O=NN1CCCC1C(=O)O` (configuration not stated), the T/C runs as follows: (dose: 100.0 mg/kg/injection, schedule: Q01DX001 (ip), vehicle: saline) 101 % of control; (dose: 200.0 mg/kg/injection, schedule: Q01DX001 (ip), vehicle: saline) 101 % of control and 93 % of control.
For the compound `Oc1ccc2ccc(O)cc2c1`, the T/C reads like this: (dose: 100.0 mg/kg/injection, schedule: Q04DX002 (ip), vehicle: Klucel (hydroxypropylcellulose) (HPC)) 105 % of control; (dose: 200.0 mg/kg/injection, schedule: Q04DX002 (ip), vehicle: Klucel (hydroxypropylcellulose) (HPC)) 108 % of control; (dose: 400.0 mg/kg/injection, schedule: Q04DX002 (ip), vehicle: Klucel (hydroxypropylcellulose) (HPC)) 102 % of control.
As to `NC(CCl)=NCCCN1CCCCC1`, the T/C by setting is: under setting [1], 104 % of control; under setting [2], 107 % of control; (dose: 25.0 mg/kg/injection, schedule: Q01DX009 (ip), vehicle: Klucel (hydroxypropylcellulose) (HPC)) 96 % of control; under setting [3], 96 % of control; (dose: 50.0 mg/kg/injection, schedule: Q04DX002 (ip), vehicle: Klucel (hydroxypropylcellulose) (HPC)) 105 % of control.
For the compound `CN(C)c1ccc(/C=N/Nc2c([N+](=O)[O-])cc(C(F)(F)F)cc2[N+](=O)[O-])cc1`, the T/C (dose: 100.0 mg/kg/injection, schedule: Q01DX009 (ip), vehicle: gum acacia) was 90 % of control; the T/C (dose: 200.0 mg/kg/injection, schedule: Q01DX009 (ip), vehicle: gum acacia) was 88 % of control; the T/C (dose: 400.0 mg/kg/injection, schedule: Q01DX009 (ip), vehicle: gum acacia) was 88 % of control.
Regarding `N#CCN(CC#N)CC#N`, the T/C (dose: 3.13 mg/kg/injection, schedule: Q04DX003 (ip), vehicle: saline with Tween-80) was 102 % of control and the T/C (dose: 6.25 mg/kg/injection, schedule: Q04DX003 (ip), vehicle: saline with Tween-80) was 111 % of control.
Regarding `Nc1nc(N)c(N)c(Nc2ccc(O)cc2)n1`, the T/C (dose: 100.0 mg/kg/injection, schedule: Q01DX Z (ip), vehicle: saline) was 102 % of control.
As for `NC(=O)C/C=C/CC(N)=O`, the T/C was 102 % of control under setting [4], 102 % of control under setting [5] and 102 % of control under setting [6].
For `CCCCC(CC)CC1C(=O)NC(=S)NC1=O` (configuration not stated), the T/C by setting is: under setting [7], 97 % of control; under setting [8], 98 % of control.
Turning to `Nc1ccc(NS(=O)(=O)Cc2ccccc2)cc1`, the T/C (dose: 100.0 mg/kg/injection, schedule: Q01DX001 (ip), vehicle: saline with Tween-80) is 98 % of control; the T/C (dose: 200.0 mg/kg/injection, schedule: Q01DX001 (ip), vehicle: saline with Tween-80) was 96 % of control; the T/C (dose: 400.0 mg/kg/injection, schedule: Q01DX001 (ip), vehicle: saline with Tween-80) was 107 % of control.
As for `COc1ccc(C(=O)/C=C/c2ccccc2Cl)cc1`, the T/C was 97 % of control (dose: 100.0 mg/kg/injection, schedule: Q04DX003 (ip), vehicle: saline with Tween-80) and 97 % of control (dose: 200.0 mg/kg/injection, schedule: Q04DX003 (ip), vehicle: saline with Tween-80).
With `CCC[N+](=CC1CCCCC1)CCC`, the T/C runs as follows: (dose: 100.0 mg/kg/injection, schedule: Q04DX003 (ip), vehicle: saline) 104 % of control; (dose: 200.0 mg/kg/injection, schedule: Q04DX003 (ip), vehicle: saline) 95 % of control; (dose: 400.0 mg/kg/injection, schedule: Q04DX003 (ip), vehicle: saline) 91 % of control.
On to `C/C=C\c1ccc(OCCOC(C)=O)c(OC)c1`, for which the T/C (dose: 100.0 mg/kg/injection, schedule: Q04DX002 (ip), vehicle: saline with Tween-80) was 97 % of control; the T/C (dose: 200.0 mg/kg/injection, schedule: Q04DX002 (ip), vehicle: saline with Tween-80) is 97 % of control; the T/C (dose: 400.0 mg/kg/injection, schedule: Q04DX002 (ip), vehicle: saline with Tween-80) is 93 % of control.
Consider `COc1ccc(/C=C2\N=C(c3ccc(Cl)cc3)OC2=O)cc1Br`, for which the T/C reads like this: (dose: 100.0 mg/kg/injection, schedule: Q04DX002 (ip), vehicle: saline) 101 % of control; (dose: 200.0 mg/kg/injection, schedule: Q04DX002 (ip), vehicle: saline) 93 % of control; (dose: 400.0 mg/kg/injection, schedule: Q04DX002 (ip), vehicle: saline) 108 % of control.
Regarding `CCCCCCCCC1CCCC2C(C)CCC(C)C12` (configuration not stated), the T/C reads like this: under setting [7], 96 % of control; under setting [8], 95 % of control; (dose: 300.0 mg/kg/injection, schedule: Q01DX001 (ip), vehicle: saline) 104 % of control.
With `O=C(CCl)N1CC2CCC(CC2)C1`, the T/C under setting [4] is 97 % of control.
For `CN(C)C1c2cccn2-c2ccccc2S(=O)(=O)C1c1ccccc1[N+](=O)[O-]` (configuration not stated), the T/C under setting [5] was 98 % of control and the T/C under setting [6] is 96 % of control.
For the compound `CCC1([N+](=O)[O-])COP(=O)(N2CC2)OC1` (configuration not stated), the T/C is 106 % of control (dose: 100.0 mg/kg/injection, schedule: Q01DX001 (ip), vehicle: carboxymethylcellulose (CMC)) and 116 % of control (dose: 200.0 mg/kg/injection, schedule: Q01DX001 (ip), vehicle: carboxymethylcellulose (CMC)).
